Measured values taken from publication PMC12735921, “Evaluation of Antiproliferative Activity and Molecular Modeling Studies of Some Novel Benzimidazolone-Bridged Hybrid Compounds” (Pharmaceuticals, 2025).
Values joined by “and” are separate entries in the source; they are usually repeats but may differ in a detail not shown here. Identical values can stand only once.

Key:
Format in all cases: cell-based, human
HeLa cells [1] = test: MTT cell viability assay, HeLa; details: for IC50: MTT, 48 h, mean ± SD, n = 3; for HeLa Selectivity Index (SI): SI = IC50 (HEK 293)/IC50 (HeLa)
Method: (§1) Cell viability assay was performed on the human lung cancer (A549) (ATCC CCL-185), human breast cancer (MCF-7) (ATCC-HTB-22), cervical cancer (HeLa) (ATCC-CCL-2), and human embryonic kidney 293 (HEK293) (ATCC-CRL-1573) cell lines, which were purchased from Deutsche Sammlung von Mikroorganismen und Zellkulturen (DSMZ, Braunschweig, Germany). The cells were maintained in Dulbecco’s modified Eagle’s medium (DMEM), supplemented with 10% fetal bovine serum (FBS), 2 mM L-glutamine, 100 U/mL penicillin, and 100 mg/L streptomycin (Biochrom AG, Berlin, Germany) at 37 °C in a humidified atmosphere of 5% CO2.
(§2) The cytotoxic effect was determined by the MTT (3-(4,5-dimethyl-2-thiazolyl)-2,5-diphenyl-2H-tetrazolium bromide) cell viability assay. Cells were seeded at an initial concentration of 1 × 10^5 cells/mL in 96-well microplates. Cells were then treated with different concentrations (0.5, 5, 10, 25, 50, 100 and 200 µM) of the novel synthesized compounds for 48 h. After the incubation period, the formed formazan crystals were dissolved in dimethyl sulfoxide (DMSO), and the optical density (OD) of the compounds was measured at 570 nm using a spectrophotometer (BMG Labtech, Ortenberg, Germany). Cytotoxicity was expressed as an increase in the mean percentage of cytotoxicity relative to the unexposed control ± standard deviation (SD). […] Control values were set at 0% cytotoxicity. IC50 was calculated by fitting the data to a sigmoidal curve using a four-parameter logistic model and was presented as an average of three independent measurements. […] Doxorubicin was used as a positive control. Each sample was tested in triplicate.
(§3) To evaluate the selectivity of the tested compound(s) toward cancer cells over normal cells, the Selectivity Index (SI) was calculated using the following formula:SI = IC50 (normal cells)/IC50 (cancer cells)
(§4) An SI value greater than 2 was considered to indicate selective cytotoxicity, while values below 2 were interpreted as non-selective. Higher SI values reflect greater therapeutic potential due to reduced toxicity toward normal cells.

A549 cells = test: MTT cell viability assay, A549; details: for IC50: MTT, 48 h, mean ± SD, n = 3; for A549 Selectivity Index (SI): SI = IC50 (HEK 293)/IC50 (A549)
Method: as §1, §2, §3, §4

MCF-7 cells = test: MTT cell viability assay, MCF-7; details: for IC50: MTT, 48 h, mean ± SD, n = 3; for MCF-7 Selectivity Index (SI): SI = IC50 (HEK 293)/IC50 (MCF-7)
Method: as §1, §2, §3, §4

HEK 293 cells = test: MTT cell viability assay, non-cancerous HEK 293; details: mean ± SD, n = 3
Method: as §1
The cytotoxic effect was determined by the MTT (3-(4,5-dimethyl-2-thiazolyl)-2,5-diphenyl-2H-tetrazolium bromide) cell viability assay. Cells were seeded at an initial concentration of 1 × 10^5 cells/mL in 96-well microplates. Cells were then treated with different concentrations (0.5, 5, 10, 25, 50, 100 and 200 µM) of the novel synthesized compounds for 48 h. After the incubation period, the formed formazan crystals were dissolved in dimethyl sulfoxide (DMSO), and the optical density (OD) of the compounds was measured at 570 nm using a spectrophotometer (BMG Labtech, Ortenberg, Germany). Cytotoxicity was expressed as an increase in the mean percentage of cytotoxicity relative to the unexposed control ± standard deviation (SD). […] Control values were set at 0% cytotoxicity. IC50 was calculated by fitting the data to a sigmoidal curve using a four-parameter logistic model and was presented as an average of three independent measurements. […] Each sample was tested in triplicate.

HeLa cells [2] = test: Intracellular GSH/GSSG ratio, HeLa; details: IC50 concentration of compound, 48 h, H2O2 positive control, mean ± SD, n = 3
Method: Intracellular reduced (GSH) and oxidized (GSSG) glutathione levels were measured using the GSH/GSSG Ratio Detection Assay Kit (Cayman Chemical, Ann Arbor, MI, USA, Cat. No: 703002) according to the manufacturer’s protocol. […] After treatment, cells were washed with cold PBS and lysed with MES buffer provided in the kit.
To prevent oxidation of GSH to GSSG during processing, samples were deproteinized using the supplied metaphosphoric acid solution and neutralized accordingly. Total glutathione and GSSG levels were measured separately by adding the appropriate buffers and reagents to the wells of a 96-well plate, followed by the addition of DTNB recycling reagent and glutathione reductase. Absorbance was read at 405 nm using a microplate reader (BMG Labtech, Germany). The amount of GSH was calculated by subtracting 2 × GSSG from the total glutathione, and the GSH/GSSG ratio was used to assess intracellular redox status.

HeLa cells [3] = test: Total oxidative status (TOS), HeLa; details: IC50 concentration of compound, 48 h, H2O2 250 µM positive control, mean ± SD, n = 3
Method: TOS were evaluated using a commercially available kit (Rel Assay Diagnostics®, Gaziantep, Turkey) according to the manufacturer’s instructions. […] The TOS assay quantifies oxidizing agents based on their ability to convert an iron (II) ion chelator complex to iron (III) ions. The results were calibrated against hydrogen peroxide (H2O2, 250 µM) as a positive control for 48 h and expressed as µmol H2O2 equivalents per liter. The analysis was performed in three independent biological replicates (n = 3).

HeLa cells [4] = test: Cell cycle analysis (PI staining, flow cytometry), HeLa; details: IC50 concentration, 48 h, mean ± SEM, n = 3
Method: Cell cycle distribution was assessed by propidium iodide (PI) staining and flow cytometry. HeLa, MCF-7, and A549 cells were seeded in 6-well plates at a density of 1 × 10^5 cells per well and allowed to attach overnight. […] Following exposure, both adherent and floating cells were collected, washed twice with cold phosphate-buffered saline (PBS, pH 7.4), and fixed overnight in 70% cold ethanol at 4 °C. After fixation, the cells were centrifuged and resuspended in 500 µL of PI/RNase staining solution containing 50 µg/mL PI and 100 µg/mL RNase A (Sigma-Aldrich®, St. Louis, MO, USA), followed by incubation in the dark for 30 min at 37 °C. The stained samples were analyzed using a Muse™ Cell Analyzer (Merck, Millipore, Germany) equipped with a 488 nm excitation laser and a 617 nm emission filter. A minimum of 10,000 events per sample were acquired after exclusion of debris and doublets via FSC-A vs. FSC-H gating. The DNA content histograms were generated automatically, and cell populations were expressed as percentages of G0/G1, S, and G2/M phases using the Muse™ Cell Cycle Analysis Software 1.5.0.0. All assays were conducted in triplicate biological repeats (n = 3), and results were reported as mean ± SEM.

HeLa cells [5] = test: LDH leakage assay, HeLa; details: IC50 concentration of compound, 48 h, H2O2 positive control, mean ± SD, n = 3
Method: One hundred microliters of culture medium was transferred to a new 96-well plate. One hundred microliters of LDH reaction solution was added to each well, and absorbance was measured at 490 nm using an ELISA plate reader (BMG Labtech, Ortenberg, Germany) after 30 min.

IC50 (HeLa cells [1]; Homo sapiens, HeLa) [µM] | IC50 (A549 cells; Homo sapiens, A549) [µM] | IC50 (MCF-7 cells; Homo sapiens, MCF7) [µM] | Compound | IC50 (HEK 293 cells; Homo sapiens, HEK293, 48 h) [µM] | HeLa Selectivity Index (SI) (HeLa cells [1]) | A549 Selectivity Index (SI) (A549 cells) | MCF-7 Selectivity Index (SI) (MCF-7 cells) | GSH/GSSG (HeLa cells [2]) | TOS (HeLa cells [3]) | cells in G0/G1 phase (HeLa cells [4]) [%] | cells in G2/M phase (HeLa cells [4]) [%] | cells in S phase (HeLa cells [4]) [%] | LDH (HeLa cells [5]) | IC50 (HEK 293 cells; 48 h) [µM] | IC50 (HeLa cells [1]) [µM] | IC50 (A549 cells) [µM] | IC50 (MCF-7 cells) [µM]
3.4 ± 0.19 | 4.3 ± 0.2 | 6.4 ± 0.37 | COc1cccc2c1C(=O)c1c(O)c3c(c(O)c1C2=O)C[C@@](O)(C(=O)CO)C[C@@H]3O[C@H]1C[C@H](N)[C@H](O)[C@H](C)O1 [Doxorubicin, reference compound] |  |  |  |  |  |  |  |  |  |  |  |  |  | 
68.8 ± 3.9 | 60.8 ± 3.51 | 63.2 ± 3.65 | CCOC(=O)Cn1c(=O)n(CC(=O)OCC)c2cc(Cl)c(Cl)cc21 [Compound 2, Diethyl 2,2′-(5,6-Dichloro-2-oxo-1H-benzimidazole-1,3(2H)-diyl)diacetate] | 71.3 ± 4.12 | 1.04 | 1.17 | 1.13 |  |  |  |  |  |  |  |  |  | 
54.3 ± 3.13 | 52.8 ± 3 | 65.1 ± 3.76 | COc1cccc2cc(C(=O)NNC(=O)Cn3c(=O)n(CC(=O)NNC(=O)c4cc5cccc(OC)c5oc4=O)c4cc(Cl)c(Cl)cc43)c(=O)oc12 [Compound 12e, N′,N′′′ -(2,2′-(5,6-dichloro-2-oxo-1H-benzo[d]imidazole-1,3(2H)-diyl)bis(acetyl))bis(8-methoxy-2-oxo-2H-chromene-3-carbohydrazide)] | 60.2 ± 3.47 | 1.1 | 1.14 | 0.92 |  |  |  |  |  |  |  |  |  | 
29.1 ± 1.26 | 23.6 ± 1.3 | 26.4 ± 1.52 | CCN(CC)c1ccc2cc(C(=O)NNC(=O)Cn3c(=O)n(CC(=O)NNC(=O)c4cc5ccc(N(CC)CC)cc5oc4=O)c4cc(Cl)c(Cl)cc43)c(=O)oc2c1 [Compound 12f] | 43.5 ± 2.51 | 1.49 | 1.84 | 1.64 |  |  |  |  |  |  |  |  |  | 
13.6 ± 0.78 | 35.2 ± 2 | 25.8 ± 1.5 | O=C(Cn1c(=O)n(CC(=O)NNC(=O)c2cc3cc(Cl)ccc3oc2=O)c2cc(Cl)c(Cl)cc21)NNC(=O)c1cc2cc(Cl)ccc2oc1=O [Compound 12b, N′,N′′′ -(2,2′-(5,6-dichloro-2-oxo-1H-benzo[d]imidazole-1,3(2H)-diyl)bis(acetyl))bis(6-chloro-2-oxo-2H-chromene-3-carbohydrazide)] | 49.1 ± 2.83 | 3.61 | 1.39 | 1.9 | 10.1 ± 1.1 | 8.1 ± 0.6 µmol H2O2 eq/L and 8.1 ± 0.6 ^a,b µmol H2O2 eq/L | 41.0 ± 2.1 | 35.0 ± 1.7 | 24.0 ± 1.4 | 28.5 ± 2.3 µU/mL and 28.5 ± 2.3 ^a,b µU/mL |  |  |  | 
 |  |  | 2,2′-(5,6-Dichloro-2-oxo-1H-benzimidazole-1,3(2H)-diyl)bis[N′-(furan-2-ylmethylidene) acetohydrazide] [Compound 4] |  |  |  |  |  |  |  |  |  |  | 55 ± 3.17 | 72 ± 4.16 | 48 ± 2.77 | 58 ± 3.35
75.4 ± 4.35 | 63.5 ± 3.6 | 69.8 ± 4.03 | NNC(=O)Cn1c(=O)n(CC(=O)NN)c2cc(Cl)c(Cl)cc21 [Compound 3, 2,2′-(5,6-Dichloro-2-oxo-1H-benzimidazole-1,3(2H)-diyl)diacetohydrazide] | 67.9 ± 3.9 | 0.89 | 1.06 | 0.97 |  |  |  |  |  |  |  |  |  | 
48.5 ± 2.8 | 21.7 ± 1.25 | 50.8 ± 2.93 | O=C(Cn1c(=O)n(CC(=O)NNC(=O)c2cc3ccccc3oc2=O)c2cc(Cl)c(Cl)cc21)NNC(=O)c1cc2ccccc2oc1=O [Compound 12a, N′,N′′′ -(2,2′-(5,6-dichloro-2-oxo-1H-benzo[d]imidazole-1,3(2H)-diyl)bis(acetyl))bis(2-oxo-2H-chromene-3-carbohydrazide)] | 44.6 ± 2.57 | 0.91 | 2.05 | 0.87 |  |  |  |  |  |  |  |  |  | 
26.1 ± 1.5 | 48.3 ± 2.79 | 50.2 ± 2.9 | O=C(Cn1c(=O)n(CC(=O)N/N=C/c2cccs2)c2cc(Cl)c(Cl)cc21)N/N=C/c1cccs1 [Compound 5] | 59.4 ± 3.43 | 2.27 | 1.22 | 1.18 | 11.8 ± 1.3 | 6.9 ± 0.5 µmol H2O2 eq/L and 6.9 ± 0.5 ^a,b µmol H2O2 eq/L | 44.5 ± 2.2 | 30.0 ± 1.5 | 25.5 ± 1.6 | 24.8 ± 2.1 µU/mL and 24.8 ± 2.1 ^a,b µU/mL |  |  |  | 
23.9 ± 1.38 | 19.1 ± 1.1 | 21.7 ± 1.25 | O=C(Cn1c(=O)n(CC(=O)c2ccccc2)c2cc(Cl)c(Cl)cc21)c1ccccc1 [Compound 8, 5,6-Dichloro-1,3-bis(2-oxo-2-phenylethyl)-1,3-dihydro-2H-benzimidazol-2-one] | 17.5 ± 1.01 | 0.73 | 0.91 | 0.8 |  |  |  |  |  |  |  |  |  | 
